Broadly, the AC50 is the midpoint of the concentration-response curve, whichever way the signal moves.

Targets include D(3) dopamine receptor (Homo sapiens, UniProt P35462); Adenosine receptor A2a (Homo sapiens, UniProt P29274); Melanocortin receptor 3 (Homo sapiens, UniProt P41968).
The target of assay [1] is Gamma-aminobutyric acid receptor subunit alpha-1 (Rattus norvegicus, UniProt P62813). In kind it is functional.
Assay [2] has as its target T1, 5-hydroxytryptamine receptor 3A (Homo sapiens, UniProt P46098).
T1 sequence (P46098 whole entry): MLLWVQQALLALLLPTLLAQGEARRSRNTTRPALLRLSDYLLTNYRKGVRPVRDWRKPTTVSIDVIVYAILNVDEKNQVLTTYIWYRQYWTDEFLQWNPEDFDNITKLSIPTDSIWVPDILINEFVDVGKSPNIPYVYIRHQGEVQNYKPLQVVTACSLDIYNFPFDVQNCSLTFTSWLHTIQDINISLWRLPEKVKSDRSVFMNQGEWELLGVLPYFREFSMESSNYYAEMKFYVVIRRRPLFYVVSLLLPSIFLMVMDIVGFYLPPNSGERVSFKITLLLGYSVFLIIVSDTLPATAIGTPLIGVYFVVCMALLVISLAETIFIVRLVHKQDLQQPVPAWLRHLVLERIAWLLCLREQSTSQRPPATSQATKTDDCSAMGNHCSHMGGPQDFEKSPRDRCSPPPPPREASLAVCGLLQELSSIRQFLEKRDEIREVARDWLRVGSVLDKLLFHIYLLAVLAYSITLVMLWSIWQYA
In kind it is functional.

Assay [3] has as its target T2, Alpha-2B adrenergic receptor (Homo sapiens, UniProt P18089).
T2 sequence (P18089 whole entry): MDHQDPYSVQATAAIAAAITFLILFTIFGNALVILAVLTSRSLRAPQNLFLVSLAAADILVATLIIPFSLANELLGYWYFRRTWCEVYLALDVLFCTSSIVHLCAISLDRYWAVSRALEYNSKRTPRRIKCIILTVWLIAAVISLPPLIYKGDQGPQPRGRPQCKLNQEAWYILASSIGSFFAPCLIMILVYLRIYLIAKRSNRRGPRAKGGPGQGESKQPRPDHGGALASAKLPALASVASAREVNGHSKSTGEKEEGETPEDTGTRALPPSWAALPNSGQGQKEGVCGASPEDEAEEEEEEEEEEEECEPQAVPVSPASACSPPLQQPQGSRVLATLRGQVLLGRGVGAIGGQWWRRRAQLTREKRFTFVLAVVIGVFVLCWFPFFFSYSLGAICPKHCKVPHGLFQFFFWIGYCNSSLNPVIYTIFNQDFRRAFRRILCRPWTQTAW

The target of assay [4] is Delta-type opioid receptor (Homo sapiens, UniProt P41143).
The target in assay [5] is cGMP-inhibited 3',5'-cyclic phosphodiesterase 3A (Homo sapiens, UniProt Q14432). In kind it is functional.
Assay [6] addresses Sodium-dependent noradrenaline transporter (Homo sapiens, UniProt P23975).
The target of assay [7] is T3, Prostaglandin G/H synthase 1 (Rattus norvegicus, UniProt Q63921).
T3 sequence (Q63921 whole entry): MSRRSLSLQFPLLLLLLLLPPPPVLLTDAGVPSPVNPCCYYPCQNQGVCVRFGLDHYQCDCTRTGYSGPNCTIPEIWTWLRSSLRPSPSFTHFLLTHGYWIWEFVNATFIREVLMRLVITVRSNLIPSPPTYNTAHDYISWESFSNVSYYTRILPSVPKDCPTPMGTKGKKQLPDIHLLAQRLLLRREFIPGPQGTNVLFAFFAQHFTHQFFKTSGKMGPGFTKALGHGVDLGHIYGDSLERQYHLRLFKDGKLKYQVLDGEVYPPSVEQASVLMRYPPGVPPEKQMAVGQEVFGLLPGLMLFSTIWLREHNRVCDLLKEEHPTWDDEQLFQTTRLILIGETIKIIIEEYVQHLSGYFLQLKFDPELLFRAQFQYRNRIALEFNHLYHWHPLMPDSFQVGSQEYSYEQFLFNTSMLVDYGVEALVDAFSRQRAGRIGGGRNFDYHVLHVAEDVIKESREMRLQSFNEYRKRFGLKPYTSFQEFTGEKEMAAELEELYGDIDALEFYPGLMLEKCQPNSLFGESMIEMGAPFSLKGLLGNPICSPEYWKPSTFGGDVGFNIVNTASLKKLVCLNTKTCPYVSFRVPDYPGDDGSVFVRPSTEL
In kind it is functional.
Further: assay procedure not described here.

Sequence of Gamma-aminobutyric acid receptor subunit alpha-1 (P62813 whole entry): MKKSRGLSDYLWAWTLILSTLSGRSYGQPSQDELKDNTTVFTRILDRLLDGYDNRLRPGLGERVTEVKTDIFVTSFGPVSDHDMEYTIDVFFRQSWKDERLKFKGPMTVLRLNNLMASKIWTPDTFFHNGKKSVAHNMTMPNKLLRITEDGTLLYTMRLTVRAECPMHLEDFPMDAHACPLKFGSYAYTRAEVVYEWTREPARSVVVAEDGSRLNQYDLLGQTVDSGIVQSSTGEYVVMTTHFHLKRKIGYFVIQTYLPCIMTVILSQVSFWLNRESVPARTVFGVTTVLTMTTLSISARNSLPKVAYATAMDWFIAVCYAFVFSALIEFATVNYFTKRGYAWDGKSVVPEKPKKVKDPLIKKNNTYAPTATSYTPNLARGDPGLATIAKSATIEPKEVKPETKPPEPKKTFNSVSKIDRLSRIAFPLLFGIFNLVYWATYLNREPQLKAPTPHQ
Sequence of D(3) dopamine receptor (P35462 whole entry): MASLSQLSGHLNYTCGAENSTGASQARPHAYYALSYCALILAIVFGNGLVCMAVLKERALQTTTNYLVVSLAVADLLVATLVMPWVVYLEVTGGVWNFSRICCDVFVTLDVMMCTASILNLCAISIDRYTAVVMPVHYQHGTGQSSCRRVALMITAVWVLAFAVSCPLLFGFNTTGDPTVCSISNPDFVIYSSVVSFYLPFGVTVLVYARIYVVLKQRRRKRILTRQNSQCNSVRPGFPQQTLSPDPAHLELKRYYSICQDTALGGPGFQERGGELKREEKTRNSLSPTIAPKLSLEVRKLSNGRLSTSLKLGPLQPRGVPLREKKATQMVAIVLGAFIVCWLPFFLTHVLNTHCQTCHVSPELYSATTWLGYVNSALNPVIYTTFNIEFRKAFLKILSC
Sequence of Delta-type opioid receptor (P41143 whole entry): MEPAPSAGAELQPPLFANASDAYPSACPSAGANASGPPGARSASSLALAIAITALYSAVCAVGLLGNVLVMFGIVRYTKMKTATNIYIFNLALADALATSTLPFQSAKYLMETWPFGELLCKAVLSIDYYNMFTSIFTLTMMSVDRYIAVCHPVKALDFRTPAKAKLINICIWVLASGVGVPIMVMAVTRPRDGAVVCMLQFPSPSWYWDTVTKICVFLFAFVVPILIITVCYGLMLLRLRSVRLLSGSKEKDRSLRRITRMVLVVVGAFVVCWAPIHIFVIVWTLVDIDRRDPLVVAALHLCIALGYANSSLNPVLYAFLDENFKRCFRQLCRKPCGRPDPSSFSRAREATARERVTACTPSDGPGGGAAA
Sequence of Sodium-dependent noradrenaline transporter (P23975 whole entry): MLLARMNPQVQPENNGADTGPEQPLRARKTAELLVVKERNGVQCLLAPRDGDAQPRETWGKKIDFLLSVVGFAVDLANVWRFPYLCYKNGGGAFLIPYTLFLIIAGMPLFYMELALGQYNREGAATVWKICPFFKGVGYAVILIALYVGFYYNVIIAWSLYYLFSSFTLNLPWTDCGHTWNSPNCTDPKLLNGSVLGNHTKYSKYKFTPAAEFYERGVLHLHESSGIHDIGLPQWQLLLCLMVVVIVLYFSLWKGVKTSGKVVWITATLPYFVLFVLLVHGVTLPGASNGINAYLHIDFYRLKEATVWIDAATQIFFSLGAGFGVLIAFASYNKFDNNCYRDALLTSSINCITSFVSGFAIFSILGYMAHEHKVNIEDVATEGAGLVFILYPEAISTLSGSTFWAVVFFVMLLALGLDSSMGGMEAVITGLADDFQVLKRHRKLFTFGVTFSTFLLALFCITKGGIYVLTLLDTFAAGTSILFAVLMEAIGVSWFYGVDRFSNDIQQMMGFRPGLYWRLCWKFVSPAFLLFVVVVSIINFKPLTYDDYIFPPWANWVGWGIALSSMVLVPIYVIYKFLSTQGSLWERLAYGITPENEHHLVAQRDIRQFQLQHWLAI
Sequence of Adenosine receptor A2a (P29274 whole entry): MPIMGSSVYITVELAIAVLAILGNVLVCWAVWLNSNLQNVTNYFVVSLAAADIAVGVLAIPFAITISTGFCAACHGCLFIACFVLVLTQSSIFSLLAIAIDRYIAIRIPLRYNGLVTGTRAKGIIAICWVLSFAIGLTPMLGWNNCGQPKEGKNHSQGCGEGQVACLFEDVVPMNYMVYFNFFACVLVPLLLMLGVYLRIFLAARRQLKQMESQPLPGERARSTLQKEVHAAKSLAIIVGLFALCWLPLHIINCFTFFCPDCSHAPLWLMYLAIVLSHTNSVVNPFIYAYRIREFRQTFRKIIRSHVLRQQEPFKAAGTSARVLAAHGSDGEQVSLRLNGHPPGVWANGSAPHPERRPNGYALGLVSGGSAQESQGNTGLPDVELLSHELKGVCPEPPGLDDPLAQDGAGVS
Sequence of Melanocortin receptor 3 (P41968 whole entry): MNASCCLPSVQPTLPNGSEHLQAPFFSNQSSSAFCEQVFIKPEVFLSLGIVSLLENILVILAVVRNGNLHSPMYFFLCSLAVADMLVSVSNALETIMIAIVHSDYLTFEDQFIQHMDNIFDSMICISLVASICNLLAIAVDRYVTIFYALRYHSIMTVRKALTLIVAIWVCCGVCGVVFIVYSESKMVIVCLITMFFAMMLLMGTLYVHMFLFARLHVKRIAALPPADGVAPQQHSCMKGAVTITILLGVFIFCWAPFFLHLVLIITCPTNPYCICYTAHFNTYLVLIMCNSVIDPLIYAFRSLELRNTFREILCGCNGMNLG
Sequence of cGMP-inhibited 3',5'-cyclic phosphodiesterase 3A (Q14432 whole entry): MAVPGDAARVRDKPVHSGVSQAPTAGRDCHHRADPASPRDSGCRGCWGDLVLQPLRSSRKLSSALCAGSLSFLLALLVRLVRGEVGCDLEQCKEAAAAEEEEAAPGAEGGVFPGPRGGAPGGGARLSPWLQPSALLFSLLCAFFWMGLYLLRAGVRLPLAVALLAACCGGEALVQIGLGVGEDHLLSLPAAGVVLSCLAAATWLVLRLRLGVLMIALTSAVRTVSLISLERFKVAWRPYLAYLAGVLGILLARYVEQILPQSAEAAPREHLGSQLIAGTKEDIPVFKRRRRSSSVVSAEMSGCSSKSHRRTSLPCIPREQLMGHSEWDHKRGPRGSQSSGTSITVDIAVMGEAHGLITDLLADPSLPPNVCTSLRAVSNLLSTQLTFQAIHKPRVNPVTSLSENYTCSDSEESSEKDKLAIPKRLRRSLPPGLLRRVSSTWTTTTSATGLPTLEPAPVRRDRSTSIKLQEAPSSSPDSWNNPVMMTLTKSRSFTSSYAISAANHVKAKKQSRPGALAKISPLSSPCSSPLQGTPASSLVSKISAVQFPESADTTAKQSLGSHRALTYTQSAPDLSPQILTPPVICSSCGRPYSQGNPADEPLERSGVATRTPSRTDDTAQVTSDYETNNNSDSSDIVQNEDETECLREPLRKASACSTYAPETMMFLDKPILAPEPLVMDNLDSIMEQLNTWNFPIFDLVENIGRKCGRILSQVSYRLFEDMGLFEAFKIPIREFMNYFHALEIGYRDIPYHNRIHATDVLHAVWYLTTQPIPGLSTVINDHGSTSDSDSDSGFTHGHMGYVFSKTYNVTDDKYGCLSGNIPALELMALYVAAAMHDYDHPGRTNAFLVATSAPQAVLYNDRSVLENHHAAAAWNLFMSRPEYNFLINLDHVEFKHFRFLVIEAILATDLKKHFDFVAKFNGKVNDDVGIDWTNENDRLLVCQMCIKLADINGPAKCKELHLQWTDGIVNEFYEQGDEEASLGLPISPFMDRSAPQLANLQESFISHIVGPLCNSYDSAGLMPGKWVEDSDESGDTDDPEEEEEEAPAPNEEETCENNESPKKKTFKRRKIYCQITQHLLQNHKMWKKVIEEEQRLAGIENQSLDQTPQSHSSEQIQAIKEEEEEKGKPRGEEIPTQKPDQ

In the case of `CO/N=C(\C(=O)N[C@@H]1C(=O)N2C(C(=O)OCOC(=O)C(C)(C)C)=C(C)CS[C@H]12)c1csc(N)n1`, the AC50 (in assay [1]; in [2]; in assay [3]; in assay [4]; in assay [5]; at D(3) dopamine receptor) was over 30 µM throughout.
`NS(=O)(=O)c1cc(-c2nnn[nH]2)c(NCc2cccs2)cc1Cl` [AZOSEMIDE]: the AC50 (in assay [1]; in assay [2]; at Adenosine receptor A2a; in assay [3]; in [6]; in assay [4]) was over 30 µM in each case. Further, the AC50 on Melanocortin receptor 3 was over 30 µM; in [7] it was 19 µM; in [5] it was 19 µM; at D(3) dopamine receptor it was over 30 µM.
In the case of `O=C(Cn1ccnc1[N+](=O)[O-])NCc1ccccc1` [BENZNIDAZOLE], the AC50 (in assay [1]; in assay [2]; at Adenosine receptor A2a; in assay [3]; in [6]; in assay [4]) was over 30 µM each time. Also, the AC50 (on Melanocortin receptor 3; in [7]; in assay [5]; at D(3) dopamine receptor) was over 30 µM throughout.
`C[N+](C)(C)CC(=O)O` [BETAINE]: the AC50 (in [1]; in [2]; at Adenosine receptor A2a; in [3]; in assay [6]; in assay [4]) was over 30 µM throughout. In addition, the AC50 (at Melanocortin receptor 3; in [7]; in [5]; on D(3) dopamine receptor) was over 30 µM throughout.
Take `CCCC(=O)N1CCCN(c2nc(N)c3cc(OC)c(OC)cc3n2)CC1` [BUNAZOSIN]: the AC50 in assay [1] was over 30 µM; in [2], over 30 µM; on Adenosine receptor A2a, over 30 µM; in assay [3] it was 1.7 µM; in assay [6], over 30 µM; in assay [4], over 30 µM. For the same compound, the AC50 was over 30 µM at Melanocortin receptor 3, over 30 µM in [7], over 30 µM in assay [5] and 21 µM at D(3) dopamine receptor.
For `C[N+](C)(C)CCOC(N)=O` [CARBAMOYLCHOLINE], the AC50 was over 10 µM in assay [1]; over 10 µM in assay [2]; over 10 µM on Adenosine receptor A2a; over 10 µM in [6]; over 30 µM in assay [4]; over 10 µM at Melanocortin receptor 3. In addition, the AC50 in assay [7] was over 10 µM; in [5], over 30 µM; on D(3) dopamine receptor, over 30 µM.
For the compound `N[C@@H](CSCC(=O)O)C(=O)O` [CARBOCYSTEINE], the AC50 (in [1]; in assay [2]; on Adenosine receptor A2a; in [3]; in [6]; in [4]) was over 30 µM throughout. Besides, the half-maximal activity concentration (AC50) (at Melanocortin receptor 3; in [7]; in assay [5]; on D(3) dopamine receptor) was over 30 µM each time.
Turning to `COCC1=C(C(=O)OC(C)OC(=O)OC(C)C)N2C(=O)[C@@H](NC(=O)/C(=N\OC)c3csc(N)n3)[C@H]2SC1` (some centres undefined) [CEFPODOXIME PROXETIL], the AC50 (in assay [1]; in assay [2]; in [3]; in [4]; in assay [5]; on D(3) dopamine receptor) was over 30 µM throughout.
Consider `CC(C)(N)Cc1ccc(Cl)cc1` [CHLORPHENTERMINE], for which the AC50 in assay [1] is over 10 µM; in [2], over 30 µM; on Adenosine receptor A2a, over 30 µM; in [3], over 10 µM; in assay [6], 13.7 µM; in assay [4], over 30 µM. Besides, the AC50 (at Melanocortin receptor 3; in [7]; in [5]; on D(3) dopamine receptor) was over 30 µM each time.
Turning to `NS(=O)(=O)c1cc2c(cc1Cl)NC(CC1CCCC1)NS2(=O)=O` (centres undefined) [CYCLOPENTHIAZIDE], the AC50 in [1] was over 30 µM; in assay [2] it was over 30 µM; in [3] it was 17 µM; in assay [4], over 30 µM; in assay [5] it was over 30 µM; at D(3) dopamine receptor, over 30 µM.
As for `CN(C)[C@@H]1C(O)=C(C(N)=O)C(=O)[C@@]2(O)C(O)=C3C(=O)c4c(O)ccc(Cl)c4[C@@H](O)[C@H]3C[C@@H]12` [DEMECLOCYCLINE], the AC50 was over 10 µM in [1]; over 30 µM in assay [2]; over 10 µM at Adenosine receptor A2a; over 10 µM in assay [3]; over 10 µM in assay [6]; over 30 µM in [4]. For the same compound, the AC50 on Melanocortin receptor 3 was over 10 µM; in assay [7], over 10 µM; in assay [5], over 30 µM; on D(3) dopamine receptor it was over 30 µM.
For `NS(=O)(=O)c1cc(Cl)c(Cl)c(S(N)(=O)=O)c1` [DICHLORPHENAMIDE], the AC50 was over 10 µM in assay [1]; over 30 µM in [2]; over 10 µM at Adenosine receptor A2a; over 10 µM in assay [3]; over 10 µM in assay [6]; over 30 µM in assay [4]. The AC50 at Melanocortin receptor 3 is over 10 µM; in assay [7] it was over 10 µM; in [5], over 30 µM; on D(3) dopamine receptor, over 30 µM.
Turning to `C=C1C[C@@H]2[C@H](CC[C@]3(C)C(=O)CC[C@@H]23)[C@@]2(C)C=CC(=O)C=C12` [EXEMESTANE], the AC50 in assay [1] was over 10 µM; in assay [2], over 30 µM; at Adenosine receptor A2a, over 30 µM; in assay [3], over 10 µM; in assay [6] it was over 30 µM; in assay [4] it was over 30 µM. The AC50 (on Melanocortin receptor 3; in [7]; in assay [5]; on D(3) dopamine receptor) was over 30 µM throughout.
In the case of `CC(=O)O[C@]1(C(C)=O)CC[C@H]2[C@@H]3C[C@H](C)C4=CC(=O)CC[C@]4(C)[C@H]3CC[C@@]21C` [MEDROXYPROGESTERONE ACETATE], the AC50 (on Adenosine receptor A2a; in [6]; on Melanocortin receptor 3; in assay [7]) was over 30 µM in each case.
On to `Nc1ccc(/N=N/c2ccccc2)c(N)n1` [PHENAZOPYRIDINE], for which the AC50 in [1] is over 30 µM; in assay [2] it was 3.3 µM; in [3], 3.2 µM; in assay [4], 2.9 µM; in assay [5] it was 22 µM; on D(3) dopamine receptor it was 3.1 µM.
Turning to `CN(C)CCCN1c2ccccc2Sc2ccccc21` [PROMAZINE], the AC50 in [1] is over 10 µM; in assay [2], over 10 µM; on Adenosine receptor A2a, over 30 µM; in [4], over 10 µM; on Melanocortin receptor 3, over 30 µM; in assay [7], over 30 µM. Also, the values for the AC50 (in assay [5]; at D(3) dopamine receptor) were 15 µM and 0.075 µM, respectively.
As for `O=P(O)(O)C(O)(Cc1cccnc1)P(=O)(O)O` [RISEDRONIC ACID], the AC50 (in assay [1]; in assay [2]; on Adenosine receptor A2a; in assay [6]; in assay [4]; on Melanocortin receptor 3) was over 30 µM throughout. Besides, the AC50 in assay [7] is over 30 µM; in assay [5] it was 7.14 µM; at D(3) dopamine receptor, over 30 µM.

The values are drawn from ChEMBL document CHEMBL5291721, “A preclinical secondary pharmacology resource illuminates target-adverse drug reaction associations of marketed drugs” (Nat Commun, 2023).
